This note sets out measurements from patent US20060079680A1, “Pyrazoloazepine compounds as pharmaceutical agents” (Eli Lilly and Company Patent Division, priority 2002, published 2006).

Molecules are shown by their SMILES.

With `c1ccc(-c2nn3c(c2-c2ccnc4cc(OCCN5CCOCC5)ccc24)CCCCC3)nc1` [Example 4, 3-[7-(2-Morpholin-4-yl-ethoxy)-quinolin-4-yl]-2-pyridin-2-yl-5,6,7,8-tetrahydro-4H-pyrazolo[1,5-a]azepine], the melting point (in general, the temperature of the solid-liquid transition) lay within 157 to 159 °C.
